pIC50: −log10 of the molar value.
Experiments:
[1] = system: SYO1 cells; test: Apoptosis assay (Annexin V-FITC Apoptosis Detection Kit); assay type: cell-based; details: 200 nM or 1 μM, 8 days, as compared to DMSO controls
Procedure: (§1) Procedure: SYO1 cells were treated for 8 or 13 days with DMSO, a BRD9 degrader (Compound 1) at 200 nM or 1 μM, or an E3 ligase binder (lenalidomide) at 200 nM. Compounds were refreshed every 5 days. Cell cycle analysis was performed using the Click-iT™ Plus EdU Flow Cytometry Assay (Invitrogen). The apoptosis assay was performed using the Annexin V-FITC Apoptosis Detection Kit (Sigma A9210). Assays were performed according to the manufacturer's protocol.

[2] = system: SYO1 cells; test: Cell cycle analysis (Click-iT Plus EdU Flow Cytometry Assay); assay type: cell-based; details: 200 nM or 1 μM, 8 or 13 days, as compared to DMSO and lenalidomide
Procedure: as §1

[3] = system: synovial sarcoma cell lines (SYO1, Yamato, HS-SY-II, and ASKA); test: Growth of synovial sarcoma cell lines (IncuCyte confluency, crystal violet, colony imaging), Example 3; assay type: cell-based
Procedure: (§2) Cells were treated with DMSO or the BRD9 degrader, Compound 1, at indicated concentrations, and proliferation was monitored from day 7 to day 14 by measuring confluency over time using an IncuCyte live cell analysis system (FIG. 5). Growth medium and compounds were refreshed every 3-4 days.
(§3) Cells were seeded into 12-well plates and treated with DMSO, 1 μM BRD9 inhibitor, Compound 2 (also known as BI-7273, see Martin et al, J Med Chem. 59(10):4462-4475 (2016); see structure of compound 2 below), or 1 μM BRD9 degrader, Compound 1.
(§4) The number of cells was optimized for each cell line. Growth medium and compounds were refreshed every 3-5 days. SYO1, Yamato, A549, 293T and HS-SY-II cells were fixed and stained at day 11. ASKA cells were fixed and stained at day 23. Staining was done by incubation with crystal violet solution (0.5 g Crystal Violet, 27 ml 37% Formaldehyde, 100 mL 10×PBS, 10 mL Methanol, 863 dH20 to 1 L) for 30 min followed by 3× washes with water and drying the plates for at least 24 h at room temperature. Subsequently plates were scanned on an Odyssey CLx Imaging system (FIG. 6).
(§5) Cells were seeded into 96-well ultra low cluster plate (Costar, #7007) in 200 μL complete media and treated at day 2 with DMSO, Staurosporin, or BRD9 degarder, Compound 1, at indicated doses (FIG. 3C). Media and compounds were changed every 5 d and cell colonies were imaged at day 14.

[4] = system: non-synovial control cancer cell lines (293T, A549, G401); test: Growth of non-synovial control cancer cell lines, Example 3; assay type: cell-based
Procedure: as §2, §3, §4, §5

[5] = system: non-synovial control cancer cell lines (RD, HCT116, and Calu6); test: Crystal violet growth assay in non-synovial control cancer cell lines, Example 4; assay type: cell-based; details: day 14
Procedure: (§6) Procedure: Cells were seeded into 6-well or 12-well plates and were treated daily with a BRD9 degrader (Compound 1), a bromo-domain BRD9 binder (Compound 2), E3 ligase binder (lenalidomide), DMSO, or staurosporin (positive control for cell killing), at indicated concentrations. The number of cells was optimized for each cell line. Growth media was refreshed every 5 days. By day 14, medium was removed, cells were washed with PBS, and stained using 500 μL of 0.005% (w/v) crystal violet solution in 25% (v/v) methanol for at least 1 hour at room temperature. Subsequently plates were scanned on an Odyssey CLx Imaging system.

[6] = system: synovial sarcoma cell lines (SYO1, HS-SY-II, and ASKA); test: Crystal violet growth assay in synovial sarcoma cell lines, Example 4; assay type: cell-based; details: for inhibition of the growth of the cells: synovial sarcoma cell lines SYO1, HS-SY-II, ASKA, day 14
Procedure: as §6

[7] = target: Nanoluciferase-BRD9 fusion protein (3×FLAG-NLuc-BRD9) in SYO-1 cells (Homo sapiens (Human), UniProt Q9H8M2); test: SYO1 BRD9 NanoLuc degradation assay; assay type: cell-based; details: SYO-1 cells, 6 hours, Table 6A
In short: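 Stable SYO-1 line expressing 3×FLAG-NLuc-BRD9, treated with 10-point 3-fold dilutions (top 1 μM final) for 6 hours. Nanoluciferase luminescence read with Nano-Glo reagent. % inhibition relative to DMSO (high control) and 1 μM reference BRD9 degrader (low control).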

[8] = target: BRD9 bromodomain (Homo sapiens (Human), UniProt Q9H8M2); test: BRD9 bromodomain TR-FRET competition binding assay
Procedure: Procedure: His-Flag-BRD9 (P133-K239; Swiss Prot Q9H8M2; SEQ ID NO:1 mgsshhhhhhenlyfq/gdykddddkgslevlfqg/[…] […]) was cloned, expressed, purified, and then treated with TEV protease. Cleaved His tag was removed by purification. The binding of a biotinylated small molecule ligand of BRD9 was assessed via the LANCE® TR-FRET platform (PerkinElmer), and the compounds were assayed for inhibitory activity against this interaction.
Results: A mixture of biotinylated-ligand and SureLight™ Allophycocyanin-Streptavidin (APC-SA, PerkinElmer AD0201) in 50 mM HEPES (pH 7.4), 50 mM NaCl, 1 mM TCEP (pH 7), 0.01% (v/v) Tween-20, 0.01% (w/v) bovine serum albumin was added to a white 384-well PerkinElmer Proxiplate Plus plate. DMSO or 3-fold serially diluted compounds were then added to the Proxiplate followed by addition of Flag-BRD9. After a 10-minute incubation at room temperature, Eu—W1024 anti-FLAG (PerkinElmer, AD0273) was added. The final reaction mixture that contained 3.75 nM biotinylated ligand, 3 nM Flag-BRD9, 7.5 nM SureLight™ Allophycocyanin-Streptavidin, and 0.2 nM Eu—W1024 anti-FLAG was incubated at room temperature for 90 minutes.
The plates were then read on a PerkinElmer Envision plate reader to determine the ratio of emission at 665 nm over 615 nm. […]

Chain of Nanoluciferase-BRD9 fusion protein (3×FLAG-NLuc-BRD9) in SYO-1 cells (Q9H8M2 whole entry, the tested form may be a part): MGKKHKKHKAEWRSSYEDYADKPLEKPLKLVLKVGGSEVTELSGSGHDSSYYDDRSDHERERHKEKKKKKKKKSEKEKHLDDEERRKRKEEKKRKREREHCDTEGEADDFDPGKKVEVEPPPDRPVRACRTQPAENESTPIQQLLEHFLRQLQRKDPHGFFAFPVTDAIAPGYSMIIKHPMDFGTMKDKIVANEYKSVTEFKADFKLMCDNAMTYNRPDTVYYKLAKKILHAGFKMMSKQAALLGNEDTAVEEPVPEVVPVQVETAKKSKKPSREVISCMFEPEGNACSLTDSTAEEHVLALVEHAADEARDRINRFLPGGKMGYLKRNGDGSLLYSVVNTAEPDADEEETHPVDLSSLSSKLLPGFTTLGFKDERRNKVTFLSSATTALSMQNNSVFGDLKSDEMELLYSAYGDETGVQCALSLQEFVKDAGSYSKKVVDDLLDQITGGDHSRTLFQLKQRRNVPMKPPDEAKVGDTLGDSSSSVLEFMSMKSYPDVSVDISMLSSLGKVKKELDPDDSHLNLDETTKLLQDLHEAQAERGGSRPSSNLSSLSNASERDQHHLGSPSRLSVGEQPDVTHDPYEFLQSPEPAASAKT
Chain of BRD9 bromodomain (Q9H8M2 133-239): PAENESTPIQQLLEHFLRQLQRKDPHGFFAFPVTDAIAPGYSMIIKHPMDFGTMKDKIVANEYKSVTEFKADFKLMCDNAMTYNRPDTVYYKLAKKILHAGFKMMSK

Row | pIC50 [7] | pIC50 [8] | Structure (SMILES) | numbers of early- and late-apoptotic cells [1] | numbers of cells in the S-phase of the cell cycle [2] | inhibition of the growth of the cells [3] | inhibition of the growth of the cells [4] | inhibition of the growth of the cells [5] | growth inhibition compared with the other treatments ([6]; all synovial cell lines) | inhibition of the growth of the cells [6]
1 | – | – | COc1cc(-c2cn(C)c(=O)c3cnccc23)cc(OC)c1CN(C)CC(=O)NCCOCCOCCNc1cccc2c1C(=O)N(C1CCC(=O)NC1=O)C2=O (stereo not shown) [Compound 1] | increased numbers of early- and late-apoptotic cells | reduced numbers of cells in the S-phase | inhibition of the growth of the cells | does not result in inhibition of the growth | did not result in inhibition of the growth | most significant growth inhibition | inhibition of the growth of the cells
2 | – | – | COc1cc(-c2cn(C)c(=O)c3cnccc23)cc(OC)c1CN(C)C [Compound 2] | – | – | inhibition of the growth of the cells | does not result in inhibition of the growth | did not result in inhibition of the growth | – | inhibition of the growth of the cells
3 | < 7.00 | < 7.00 | COc1cc(-c2cn(C)c(=O)c3c2CCN(C(=O)NCCOCCNc2ccc4c(c2)C(=O)N(C2CCC(=O)NC2=O)C4=O)C3)c(OC)cc1CN(C)C (stereo not shown) [Compound D32, 5-[4-[(dimethylamino)methyl]-2,5-dimethoxyphenyl]-N-[2-(2-[[2-(2,6-dioxopiperidin-3-yl)-1,3-dioxoisoindol-5-yl]amino]ethoxy)ethyl]-7-methyl-8-oxo-3,4-dihydro-1H-2,7-naphthyridine-2-carboxamide formic acid] | – | – | – | – | – | – | –
4 | < 6.00 | < 8.00 | COc1cc(-c2cn(C)c(=O)c3c2CN(C(=O)N(C)C)CC3)cc(OC)c1CN(C)CCOCCN1CCN(c2ccc3c(c2)C(=O)N(C2CCC(=O)NC2=O)C3=O)CC1 (stereo not shown) [Compound D33, 8-(4-(((2-(2-(4-(2-(2,6-dioxopiperidin-3-yl)-1,3-dioxoisoindolin-5-yl)piperazin-1-yl)ethoxy)ethyl)(methyl)amino)methyl)-3,5-dimethoxyphenyl)-N,N,6-trimethyl-5-oxo-3,4,5,6-tetrahydro-2,6-naphthyridine-2 (1H)-carboxamide formic acid] | – | – | – | – | – | – | –
5 | < 8.00 | > 8.00 | COc1cc(-c2cn(C)c(=O)c3c2CCN(C(=O)NCCCCCCCC(=O)N[C@H](C(=O)N2C[C@H](O)C[C@H]2C(=O)NCc2ccc(-c4scnc4C)cc2)C(C)(C)C)C3)cc(OC)c1CN(C)C [Compound D37, (2S,4R)-1-[(2S)-2-[8-(5-[4-[(dimethylamino)methyl]-3,5-dimethoxyphenyl]-7-methyl-8-oxo-3,4-dihydro-1H-2,7-naphthyridine-2-carbonylamino)octanamido]-3,3-dimethylbutanoyl]-4-hydroxy-N-[[4-(4-methyl-1,3-thiazol-5-yl)phenyl]methyl]pyrrolidine-2-carboxamide formic acid] | – | – | – | – | – | – | –
6 | < 8.00 | > 8.00 | COc1cc(-c2cn(C)c(=O)c3c2CCN(C(=O)NCCCCCCCCCC(=O)N[C@H](C(=O)N2C[C@H](O)C[C@H]2C(=O)NCc2ccc(-c4scnc4C)cc2)C(C)(C)C)C3)cc(OC)c1CN(C)C [Compound D38, (2S,4R)-1-[(2S)-2-[10-(5-[4-[(dimethylamino)methyl]-3,5-dimethoxyphenyl]-7-methyl-8-oxo-3,4-dihydro-1H-2,7-naphthyridine-2-carbonylamino)decanamido]-3,3-dimethylbutanoyl]-4-hydroxy-N-[[4-(4-methyl-1,3-thiazol-5-yl)phenyl]methyl]pyrrolidine-2-carboxamide] | – | – | – | – | – | – | –
